The target of assay [1] is T1, Fatty acid-binding protein, adipocyte (Mus musculus) (UniProt P04117).
T1 sequence (whole entry): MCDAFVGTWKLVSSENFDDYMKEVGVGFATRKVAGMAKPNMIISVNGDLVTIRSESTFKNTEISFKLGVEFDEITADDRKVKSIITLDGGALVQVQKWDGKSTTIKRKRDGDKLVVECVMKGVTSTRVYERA
Briefly: Inhibition of FABP4 in mouse RAW264.7 cells assessed as inhibition of LPS-induced TNFalpha production after 24 hrs by ELISA. The class given is cell-based. (An ELISA detects its analyte on a solid surface through an enzyme-linked reagent.)

Assay [2] addresses T1, Fatty acid-binding protein, adipocyte (Mus musculus). Kind of assay: Inhibition of FABP4 in mouse RAW264.7 cells assessed as inhibition of LPS-induced TNFalpha expression after 24 hrs by qPCR method. The format is cell-based.
The target is the same in assay [3]. Briefly: Inhibition of FABP4 in mouse RAW264.7 cells assessed as inhibition of LPS-induced IL-6 expression after 24 hrs by qPCR method. The format is cell-based. In general terms: Quantitative PCR measures a nucleic acid by following its amplification.
The target in assay [4] is T2, Fatty acid-binding protein, liver (Homo sapiens) (UniProt P07148).
T2 sequence (whole entry): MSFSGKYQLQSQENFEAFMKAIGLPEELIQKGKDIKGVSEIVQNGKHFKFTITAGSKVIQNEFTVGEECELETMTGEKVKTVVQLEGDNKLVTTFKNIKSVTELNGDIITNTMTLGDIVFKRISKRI
Briefly: Displacement of 1,8-ANS from His6-tagged FABP1 (unknown origin) expressed in Escherichia coli BL21(DE3) cells at 25 uM by fluorescence assay relative to control.

Assay [5] has as its target T3, Fatty acid-binding protein, intestinal (Homo sapiens) (UniProt P12104).
T3 sequence (whole entry): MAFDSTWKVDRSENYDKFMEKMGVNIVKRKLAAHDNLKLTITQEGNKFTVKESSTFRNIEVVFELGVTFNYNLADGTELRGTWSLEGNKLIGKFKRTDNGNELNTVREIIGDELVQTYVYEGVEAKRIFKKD
Kind of assay: Displacement of 1,8-ANS from His6-tagged FABP2 (unknown origin) expressed in Escherichia coli BL21(DE3) cells at 25 uM by fluorescence assay relative to control.

The target of assay [6] is Fatty acid-binding protein 5 (Homo sapiens) (UniProt Q01469). Kind of assay: Displacement of 1,8-ANS from His6-tagged FABP5 (unknown origin) expressed in Escherichia coli BL21(DE3) cells at 25 uM by fluorescence assay relative to control.
Sequence of Fatty acid-binding protein 5 (Homo sapiens) (Q01469 whole entry): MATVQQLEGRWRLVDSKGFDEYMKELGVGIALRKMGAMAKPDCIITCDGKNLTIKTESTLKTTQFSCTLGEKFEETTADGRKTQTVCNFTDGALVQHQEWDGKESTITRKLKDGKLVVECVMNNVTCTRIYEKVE
Assay [7] deals with Fatty acid-binding protein, brain (Homo sapiens) (UniProt O15540). Kind of assay: Displacement of 1,8-ANS from His6-tagged FABP7 (unknown origin) expressed in Escherichia coli BL21(DE3) cells at 25 uM by fluorescence assay relative to control.
Sequence of Fatty acid-binding protein, brain (Homo sapiens) (O15540 2-132 limits assumed): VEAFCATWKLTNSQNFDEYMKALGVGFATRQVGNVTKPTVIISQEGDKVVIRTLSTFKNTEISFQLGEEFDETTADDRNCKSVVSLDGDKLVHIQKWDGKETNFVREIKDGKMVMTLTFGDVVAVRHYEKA
Assay [8] has as its target Myelin P2 protein (Homo sapiens) (UniProt P02689). Kind of assay: Displacement of 1,8-ANS from His6-tagged FABP8 (unknown origin) expressed in Escherichia coli BL21(DE3) cells at 25 uM by fluorescence assay relative to control.
The target of assay [9] is T4, Fatty acid-binding protein 9 (Homo sapiens) (UniProt Q0Z7S8).
T4 sequence (whole entry): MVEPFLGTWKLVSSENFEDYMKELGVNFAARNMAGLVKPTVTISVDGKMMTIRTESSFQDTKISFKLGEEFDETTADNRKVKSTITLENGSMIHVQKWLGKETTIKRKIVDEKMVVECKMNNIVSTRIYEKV
Kind of assay: Displacement of 1,8-ANS from His6-tagged FABP9 (unknown origin) expressed in Escherichia coli BL21(DE3) cells at 25 uM by fluorescence assay relative to control.

The target in assay [10] is T5, Fatty acid-binding protein, heart (Homo sapiens, UniProt P05413). Kind of assay: Displacement of 1,8-ANS from His6-tagged FABP3 (unknown origin) expressed in Escherichia coli BL21(DE3) cells by fluorescence assay. The conditions noted are these: read-out: Ki(app).
Target sequence in this assay (P05413 whole entry): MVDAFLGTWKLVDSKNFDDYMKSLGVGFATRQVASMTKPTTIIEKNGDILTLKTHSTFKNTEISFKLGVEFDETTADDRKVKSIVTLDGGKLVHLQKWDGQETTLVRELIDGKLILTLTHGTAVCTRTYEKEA
For assay [11], the species on record is Homo sapiens. Kind of assay: Displacement of 1,8-ANS from His6-tagged FABP4 (unknown origin) R106A mutant expressed in Escherichia coli BL21(DE3) cells at 25 uM by fluorescence assay relative to control.
For assay [12], the species on record is Homo sapiens. Briefly: Displacement of 1,8-ANS from His6-tagged FABP4 (unknown origin) R126A mutant expressed in Escherichia coli BL21(DE3) cells at 25 uM by fluorescence assay relative to control.
Assay [13] deals with T6, Fatty acid-binding protein, adipocyte (Homo sapiens, UniProt P15090). Kind of assay: Displacement of 1,8-ANS from His6-tagged FABP4 (unknown origin) expressed in Escherichia coli BL21(DE3) cells at 25 uM by fluorescence assay relative to control.
Target sequence in this assay (P15090 2-132 limits assumed): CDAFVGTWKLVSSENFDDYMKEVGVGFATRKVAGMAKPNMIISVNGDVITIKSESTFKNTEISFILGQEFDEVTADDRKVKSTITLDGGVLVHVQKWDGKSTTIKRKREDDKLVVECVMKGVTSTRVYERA
Assay [14] deals with T6, Fatty acid-binding protein, adipocyte. Briefly: Displacement of 1,8-ANS from His6-tagged FABP4 (unknown origin) expressed in Escherichia coli BL21(DE3) cells by fluorescence assay. The conditions noted are these: read-out: Ki(app).
Target sequence in this assay (P15090 whole entry): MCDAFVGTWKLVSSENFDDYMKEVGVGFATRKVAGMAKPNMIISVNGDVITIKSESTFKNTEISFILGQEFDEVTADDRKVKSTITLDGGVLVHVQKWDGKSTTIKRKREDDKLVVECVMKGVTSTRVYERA
Assay [15] has the same target. Kind of assay: Binding affinity to His6-tagged FABP4 (unknown origin) expressed in Escherichia coli BL21(DE3) cells assessed as change in melting temperature at 50 uM after 30 mins by SYPRO orange dye based thermal stability shift assay.
Target sequence in this assay (P15090 2-132 limits assumed): as the sequence (P15090 2-132 limits assumed) above
Assay [16] has the same target. Briefly: Direct binding to His6-tagged FABP4 (unknown origin) expressed in Escherichia coli BL21(DE3) cells by isothermal titration calorimetry. In general terms: In ITC the heat of successive injections is recorded.
Target sequence in this assay (P15090 whole entry): as the sequence (P15090 whole entry) above
In assay [17] the target is T5, Fatty acid-binding protein, heart. As to conditions: 25 uM.
Target sequence in this assay (P05413 2-133 limits assumed): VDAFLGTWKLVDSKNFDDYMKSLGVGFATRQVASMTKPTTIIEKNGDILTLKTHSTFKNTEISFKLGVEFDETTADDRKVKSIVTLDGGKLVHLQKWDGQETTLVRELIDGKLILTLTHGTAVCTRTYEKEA
Description: Displacement of 1,8-ANS from His6-tagged FABP3 (unknown origin) expressed in Escherichia coli BL21(DE3) cells at 25 uM by fluorescence assay relative to control
For assay [18] the target is unchanged. The conditions noted are these: 50 uM.
Target sequence in this assay (P05413 2-133 limits assumed): as above
Description: Binding affinity to His6-tagged FABP3 (unknown origin) expressed in Escherichia coli BL21(DE3) cells assessed as change in melting temperature at 50 uM after 30 mins by SYPRO orange dye based thermal stability shift assay

Sequence of Myelin P2 protein (Homo sapiens) (P02689 whole entry, looked up): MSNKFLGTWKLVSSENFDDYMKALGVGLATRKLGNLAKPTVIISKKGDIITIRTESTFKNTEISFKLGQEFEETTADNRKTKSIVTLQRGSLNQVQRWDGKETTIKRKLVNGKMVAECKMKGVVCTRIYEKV

For `O=C(O)C1C2CC=CC2c2cc(Br)cc3c2N1CC1CC=CC31` (stereo not drawn), the inhibition result in assay [1] was “Dose-dependent effect”; in assay [2], “Dose-dependent effect”; in assay [3] it was “Dose-dependent effect”; in [4] it was 95.5%; in assay [5], 34.1%; in assay [6], 77.7%. Besides, the inhibition is 58.5% in assay [7]; 68.4% in [8]; 64% in assay [9]; 27% in [11]; 54.7% in assay [12]; 95.1% in [13]. In addition, in [17], the inhibition amounted to 63.1%. Further, the Ki is 1300 nM in assay [10] and 290 nM in assay [14]. Moreover, the figures for the ΔTm in [15] and in assay [18] were 8.5 °C and 4 °C, respectively. The compound also came in with a Kd in assay [16] of 2650 nM.

A word on the inhibition: it is the drop in the measured response relative to a control, in per cent. A word on the ΔTm: it is the shift of the melting midpoint relative to a reference. A word on the Kd: it is the equilibrium constant for the complex coming apart. A lower Kd goes with higher affinity.

(Values after ChEMBL document CHEMBL3826919, “The discovery of novel and selective fatty acid binding protein 4 inhibitors by virtual screening and biological evaluation” (Bioorg Med Chem, 2016).)
